Legend:
Assay type in all cases: cell-based
HCT-15 cells = assay: CellTiter-Glo cell viability assay (cytotoxicity), HCT-15; conditions: Homo sapiens, 48 h, P-gp expressing, mean ± SEM
Description: (§1) The human lung adenocarcinoma cell line A549 was cultured in DMEM medium supplemented with 10% fetal bovine serum (FBS), 100 U/mL penicillin and 100 μg/mL streptomycin. P-gp-expressing human colon adenocarcinoma cells HCT-15 were cultured in RPMI 1640 medium supplemented with 10% FBS, 100 U/mL penicillin and 100 μg/mL streptomycin. BCRP-expressing MCF-7/MX human breast adenocarcinoma cells were cultured in DMEM medium supplemented with 10% FBS, 100 U/mL penicillin and 100 μg/mL streptomycin. MRP1-expressing H69AR human small cell lung cancer cells were cultured in RPMI 1640 medium (ATCC modification) supplemented with 20% FBS, 100 U/mL penicillin and 100 μg/mL streptomycin. All cancer cell lines employed have been systematically characterized regarding their respective ABC transporter expression profile ([Sachs et al., 2019]).
(§2) Cytotoxic activity of test compounds was analyzed after 48 h using the CellTiter-Glo Luminescent Cell Viability Assay published previously ([Weber et al., 2017]) in 384-well plates with the following cell densities: A549, MCF-7/MX: 2 × 10^3 cells/well; HCT-15: 3 × 10^3 cells/well; H69AR: 5 × 10^3 cells/well. Pipetting was conducted with the CyBi-Well 96-channel simultaneous pipettor (Analytik Jena AG, Jena, Germany). For generation of dose-response curves and calculation of IC50 values, the four-parameter logistic model was applied.

MCF-7/MX cells = assay: CellTiter-Glo cell viability assay (cytotoxicity), MCF-7/MX; conditions: Homo sapiens, MCF7/MX; 48 h, BCRP-expressing, mean ± SEM
Description: as §1, §2

H69AR cells = assay: CellTiter-Glo cell viability assay (cytotoxicity), H69AR; conditions: Homo sapiens, 48 h, MRP1-expressing, mean ± SEM
Description: as §1, §2

P-gp = target: T1, P-gp (Homo sapiens, UniProt P08183); assay: P-gp transport assay (calcein-AM) in HCT-15 cells
T1 construct: endogenous in cells; host or cells: HCT-15 human colon adenocarcinoma cells
Description: The transport of calcein-AM by P-gp and its modulation by test compounds was analyzed in the P-gp-expressing HCT-15 cell line. 5 × 10^4 cells were seeded in black 96-well plates and incubated at 37°C and 5% CO2 for 24 h. The culture medium was removed and replaced by Hank’s balanced salt solution supplemented with 10 mM HEPES. Test compounds, 2.5 μM PSC833 (positive control) or 0.5% DMSO (negative control) were added in triplicates and incubated for 30 min at 37°C and 5% CO2. The substrate calcein-AM was added (final concentration 0.5 μM) and the fluorescence (excitation 485 nm, emission 520 nm) was measured over 3 h with the Infinite m1000 pro microplate reader (Tecan Group AG, Männedorf, Switzerland) at 37°C. The transport activity of P-gp was analyzed by determining the slope of the linear part of the fluorescence-time curve (0–30 min) using linear regression. Normalization of the data to PSC833 (100% inhibition) and DMSO (0% inhibition) was performed.

BCRP = target: T2, BCRP (Homo sapiens, UniProt Q9UNQ0); assay: BCRP transport assay (Hoechst 33342) in MCF-7/MX cells
T2 construct: endogenous in cells; host or cells: MCF-7/MX human breast adenocarcinoma cells (mitoxantrone-selected)
T2 sequence (Q9UNQ0 1-655): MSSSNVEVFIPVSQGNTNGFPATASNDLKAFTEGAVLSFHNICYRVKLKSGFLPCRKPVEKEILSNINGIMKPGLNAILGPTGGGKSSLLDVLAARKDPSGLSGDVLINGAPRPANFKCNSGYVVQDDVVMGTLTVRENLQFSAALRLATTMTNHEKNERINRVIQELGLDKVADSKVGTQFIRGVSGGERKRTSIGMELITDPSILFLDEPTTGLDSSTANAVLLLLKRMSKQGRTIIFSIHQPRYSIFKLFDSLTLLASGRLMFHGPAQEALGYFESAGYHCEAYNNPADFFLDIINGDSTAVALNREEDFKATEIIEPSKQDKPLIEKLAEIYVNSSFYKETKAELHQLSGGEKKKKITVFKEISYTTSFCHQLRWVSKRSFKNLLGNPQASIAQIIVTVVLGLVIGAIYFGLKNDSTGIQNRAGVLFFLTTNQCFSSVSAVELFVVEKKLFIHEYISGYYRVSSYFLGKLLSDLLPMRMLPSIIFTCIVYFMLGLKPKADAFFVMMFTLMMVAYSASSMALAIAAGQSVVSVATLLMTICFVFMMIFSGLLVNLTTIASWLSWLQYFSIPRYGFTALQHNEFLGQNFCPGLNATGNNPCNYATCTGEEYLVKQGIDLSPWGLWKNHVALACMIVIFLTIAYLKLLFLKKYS
Description: Breast cancer resistance protein transport activity was determined in the BCRP-expressing MCF-7/MX cell line. Hoechst 33342 was applied as transporter substrate and 1 μM Ko143 as positive control or 0.5% DMSO as negative control and the assay was performed according to the P-gp assay. Fluorescence was measured at an excitation wavelength of 355 nm and emission wavelength of 460 nm. The transport activity of BCRP was analyzed by determining the plateau of the fluorescence-time curve by using non-linear regression (one-phase exponential fit). Normalization of the data to Ko143 (100% inhibition) and DMSO (0% inhibition) was performed.

T1 sequence (P08183 whole entry): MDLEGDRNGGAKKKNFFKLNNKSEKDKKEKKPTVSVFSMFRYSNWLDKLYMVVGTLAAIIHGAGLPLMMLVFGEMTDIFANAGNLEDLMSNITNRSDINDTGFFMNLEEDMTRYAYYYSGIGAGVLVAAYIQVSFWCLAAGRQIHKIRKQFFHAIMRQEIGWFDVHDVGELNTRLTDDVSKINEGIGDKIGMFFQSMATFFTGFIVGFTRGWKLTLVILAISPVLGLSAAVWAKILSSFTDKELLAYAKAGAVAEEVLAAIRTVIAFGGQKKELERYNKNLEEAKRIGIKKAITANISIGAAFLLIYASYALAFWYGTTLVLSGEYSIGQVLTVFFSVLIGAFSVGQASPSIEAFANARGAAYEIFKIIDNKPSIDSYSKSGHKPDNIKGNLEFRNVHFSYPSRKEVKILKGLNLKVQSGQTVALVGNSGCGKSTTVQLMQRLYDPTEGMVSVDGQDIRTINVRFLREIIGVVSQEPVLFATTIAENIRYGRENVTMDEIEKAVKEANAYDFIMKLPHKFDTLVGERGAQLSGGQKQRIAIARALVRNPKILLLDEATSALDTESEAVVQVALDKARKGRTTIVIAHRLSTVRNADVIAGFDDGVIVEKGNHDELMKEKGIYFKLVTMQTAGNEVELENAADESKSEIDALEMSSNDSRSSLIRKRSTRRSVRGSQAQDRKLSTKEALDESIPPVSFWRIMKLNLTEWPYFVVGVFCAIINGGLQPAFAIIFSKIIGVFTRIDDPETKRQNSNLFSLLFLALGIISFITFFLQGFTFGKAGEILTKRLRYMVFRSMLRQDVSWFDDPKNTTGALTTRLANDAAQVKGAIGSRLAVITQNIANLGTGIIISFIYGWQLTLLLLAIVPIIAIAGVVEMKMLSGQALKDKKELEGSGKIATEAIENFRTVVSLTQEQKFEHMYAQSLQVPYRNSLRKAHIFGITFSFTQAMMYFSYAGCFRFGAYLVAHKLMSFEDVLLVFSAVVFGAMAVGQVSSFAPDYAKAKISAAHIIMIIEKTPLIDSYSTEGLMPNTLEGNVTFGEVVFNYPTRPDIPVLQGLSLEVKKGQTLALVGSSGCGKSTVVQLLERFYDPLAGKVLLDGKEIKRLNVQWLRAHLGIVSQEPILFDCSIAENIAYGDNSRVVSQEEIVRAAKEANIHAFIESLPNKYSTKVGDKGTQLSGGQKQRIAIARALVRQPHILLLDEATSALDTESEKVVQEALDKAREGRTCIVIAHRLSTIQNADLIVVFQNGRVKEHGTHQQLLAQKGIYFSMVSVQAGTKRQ

Structure (SMILES)	IC50 (HCT-15 cells) [µM]	IC50 (MCF-7/MX cells) [µM]	IC50 (H69AR cells) [µM]	Inhibition of P-gp (in words) (P-gp)	Inhibition of BCRP (in words) (BCRP)	Relative inhibition of P-gp, span over the tested concentrations (P-gp; different concentrations, normalized to PSC833)	inhibition at 10 μM (P-gp; human, P-gp-expressing HCT-15 cells, probe calcein-AM (0.5 μM), 10 μM, normalized to 2.5 μM PSC833 (100%) and DMSO (0%), read-out: Relative inhibition of P-gp) [%]	inhibition at 50 μM (P-gp; human, P-gp-expressing HCT-15 cells, probe calcein-AM (0.5 μM), 50 μM, normalized to 2.5 μM PSC833 (100%) and DMSO (0%), read-out: Relative inhibition of P-gp) [%]	inhibition at 3 h, 10 μM (BCRP; human, BCRP-expressing MCF-7/MX cells, probe Hoechst 33342, 10 μM, normalized to 1 μM Ko143 (100%) and DMSO (0%), read-out: Relative inhibition of BCRP) [%]	inhibition at 3 h, 50 μM (BCRP; human, BCRP-expressing MCF-7/MX cells, probe Hoechst 33342, 50 μM, normalized to 1 μM Ko143 (100%) and DMSO (0%), read-out: Relative inhibition of BCRP) [%]	inhibition at 20 μM (P-gp; human, P-gp-expressing HCT-15 cells, probe calcein-AM (0.5 μM), 20 μM, normalized to 2.5 μM PSC833 (100%) and DMSO (0%), read-out: Relative inhibition of P-gp) [%]	inhibition at 3 h (BCRP; human, BCRP-expressing MCF-7/MX cells, probe Hoechst 33342, different concentrations, normalized to Ko143, read-out: Relative inhibition of BCRP, span over the tested concentrations) [%]
COc1cc(O)c2c(c1)C[C@H](C)OC2=O [Angelicoin B (4), angelicoin B]	> 100	> 100	> 100	did not differ significantly from those of derivative 14	no inhibitory activity could be observed							
COc1cc(O)c2c(c1)CCOC2=O [Compound 14]	> 100	> 100	> 100		did not inhibit BCRP	up to 10%						
CCCCCC1Cc2cc(OC)cc(O)c2C(=O)O1 (stereo not shown) [Compound 16]	> 100	> 100	88.5 ± 4.6				36.3 ± 5.3	81.2 ± 2.7	35.3 ± 3.4	89.1 ± 4.6		
CCCCCC1Cc2cc(OC)cc(OC)c2C(=O)O1 (stereo not shown) [Compound 16a]	> 100	10.6 ± 0.9	> 100								> 20	2.3 to 14.9
